Measurements taken from patent US4310660A, “Lincomycin compounds” (The Upjohn Company, priority 1980, dated 1982).
≈ marks a conversion by molar mass, not a printed value. Where two headings read alike, the source gives them in different places.

How the values were obtained:
Format in all cases: cell-based
Staphylococcus aureus = assay: MIC vs. aerobic bacteria, microplate broth-dilution (BHI)
Diplococcus pneumoniae = assay: as above; conditions: D. pneumoniae UC 41
Description: (§1) The Minimal Inhibitory Concentration (MIC's) of both compounds Vs. aerobic bacteria is determined using a standard microplate broth-dilution method. Brain Heart Infusion (BHI-Difco) broth medium is used, and the plates are incubated at 37° C. for 20 hrs.

Klebsiella pneumoniae = assay: as above; conditions: K. pneumoniae UC 58
Description: as §1

Proteus vulgaris = assay: as above; conditions: P. vulgaris UC 93
Description: as §1

[1] = test system: Salmonella schottmuelleri; assay: as above; conditions: S. schottmuelleri UC 126
Description: as §1

Streptococcus faecalis = assay: as above; conditions: St. faecalis UC 694
Description: as §1

S. hemolyticus = assay: MIC, test procedure as given supra; conditions: S. hemolyticus UC 152
Description: as §1
The Minimal Inhibitory Concentration (MIC's) of a representative number of the compounds prepared in Examples 2-8 follows. The test procedure is as given supra.

Escherichia coli = assay: MIC vs. aerobic bacteria, microplate broth-dilution (BHI); conditions: UC45, 20 h, E. coli UC 45, read-out: MIC
Description: as §1

Pseudomonas aeruginosa = assay: as above; conditions: UC95, 20 h, Ps. aeruginosa UC 95, read-out: MIC
Description: as §1

[2] = Staphylococcus aureus, UC76, 20 h, S. aureus UC 76, read-out: MIC
[3] = Staphylococcus aureus, UC570, 20 h, S. aureus UC 570, read-out: MIC
[4] = Staphylococcus aureus, UC746, 20 h, S. aureus UC 746, read-out: MIC
[5] = Streptococcus pneumoniae, UC41, 20 h, read-out: MIC
[6] = Klebsiella pneumoniae, UC58, 20 h, read-out: MIC
[7] = Proteus vulgaris, UC93, 20 h, read-out: MIC
[8] = Enterococcus faecalis, UC694, 20 h, read-out: MIC

Row | Structure (SMILES) | MIC (Staphylococcus aureus; [2]) [µg/mL] | MIC (Staphylococcus aureus; [3]) [µg/mL] | MIC (Staphylococcus aureus; [4]) [µg/mL] | MIC (Diplococcus pneumoniae; [5]) [µg/mL] | MIC (Escherichia coli) [µg/mL] | MIC (Klebsiella pneumoniae; [6]) [µg/mL] | MIC (Proteus vulgaris; [7]) [µg/mL] | MIC (Pseudomonas aeruginosa) [µg/mL] | MIC ([1]; Salmonella, UC126, 20 h) [µg/mL] | MIC (Streptococcus faecalis; [8]) [µg/mL] | MIC (S. hemolyticus; UC152, 20 h, read-out: MIC) [µg/mL] | further results
1 | CS[C@H]1O[C@H]([C@H](NC(=O)C2CCCCN2)[C@H](C)Cl)[C@H](O)[C@H](O)[C@H]1O (stereo partly drawn) [U-46,465] | – | – | – | – | – | – | – | – | – | – | – | MIC (Staphylococcus aureus; S. aureus UC 76, listed as 46,465): 3.9 µg/mL (≈ 10.2 µM); MIC (Staphylococcus aureus; S. aureus UC 570, listed as 46,465): 31.2 µg/mL (≈ 81.5 µM); MIC (Staphylococcus aureus; S. aureus UC 746, listed as 46,465): 3.9 µg/mL (≈ 10.2 µM); MIC (Diplococcus pneumoniae; listed as 46,465): < 1.0 µg/mL; MIC (Klebsiella pneumoniae): 500 µg/mL (≈ 1310 µM); MIC (Proteus vulgaris): 1000 µg/mL (≈ 2610 µM); MIC [1]: 1000 µg/mL (≈ 2610 µM); MIC (Streptococcus faecalis; listed as 46,465): 3.9 µg/mL (≈ 10.2 µM); MIC (S. hemolyticus; listed as 46,465): < 1.0 µg/mL
2 | CCc1ccnc(C(=O)N[C@@H]([C@H]2O[C@H](SC)[C@H](O)[C@@H](O)[C@H]2O)[C@@H](C)O)c1 [U-45,653] | > 1000 | > 1000 | > 1000 | > 1000 | > 1000 | > 1000 | > 1000 | > 1000 | > 1000 | > 1000 | > 1000 | –
3 | CS[C@H]1O[C@H]([C@H](NC(=O)C2CCCCN2C)[C@H](C)Cl)[C@H](O)[C@H](O)[C@H]1O (stereo partly drawn) [U-46,699] | 3.9 (≈ 9.83 µM) | 7.8 (≈ 19.7 µM) | 7.8 (≈ 19.7 µM) | < 1 | 1000 (≈ 2520 µM) | 250 (≈ 630 µM) | 1000 (≈ 2520 µM) | > 1000 | > 1000 | 15.6 (≈ 39.3 µM) | 3.9 (≈ 9.83 µM) | –
4 | CS[C@H]1O[C@H]([C@H](NC(=O)C2CCCCN2)[C@@H](C)O)[C@H](O)[C@H](O)[C@H]1O (stereo partly drawn) [U-60,492] | – | – | – | – | – | – | – | – | – | – | – | MIC (Staphylococcus aureus; S. aureus UC 570): > 1000 µg/mL; MIC (Staphylococcus aureus; S. aureus UC 746): 250 µg/mL (≈ 686 µM); MIC (Diplococcus pneumoniae): 31.2 µg/mL (≈ 85.6 µM); MIC (Streptococcus faecalis): > 1000 µg/mL; MIC (S. hemolyticus): 15.6 µg/mL (≈ 42.8 µM)
5 | CS[C@H]1O[C@H]([C@H](NC(=O)c2ccncc2)[C@H](C)Cl)[C@H](O)[C@H](O)[C@H]1O [U-46,137] | > 1000 | > 1000 | > 1000 | 500 (≈ 1330 µM) | 1000 (≈ 2650 µM) | 1000 (≈ 2650 µM) | > 1000 | 1000 (≈ 2650 µM) | 1000 (≈ 2650 µM) | > 1000 | 1000 (≈ 2650 µM) | –
6 | CS[C@H]1O[C@H]([C@H](NC(=O)C2CCCCN2)[C@@H](C)O)[C@H](O)[C@H](O)[C@H]1O (stereo partly drawn) [U-60,493] | 1000 (≈ 2740 µM) | 1000 (≈ 2740 µM) | 250 (≈ 686 µM) | 15.6 (≈ 42.8 µM) | > 1000 | > 1000 | > 1000 | > 1000 | > 1000 | 1000 (≈ 2740 µM) | 7.8 (≈ 21.4 µM) | –
7 | CS[C@H]1O[C@H]([C@H](NC(=O)c2ccccn2)[C@H](C)O)[C@H](O)[C@H](O)[C@H]1O [U-46,135] | > 1000 | > 1000 | > 1000 | > 1000 | > 1000 | > 1000 | > 1000 | > 1000 | > 1000 | > 1000 | 1000 (≈ 2790 µM) | –
8 | CCc1ccc(C(=O)N[C@@H]([C@H]2O[C@H](SC)[C@H](O)[C@@H](O)[C@H]2O)[C@H](C)Cl)nc1 [U-45,656] | 62.5 (≈ 154 µM) | 62.5 (≈ 154 µM) | 62.5 (≈ 154 µM) | – | > 1000 | 1000 (≈ 2470 µM) | > 1000 | > 1000 | 1000 (≈ 2470 µM) | 1000 (≈ 2470 µM) | 3.9 (≈ 9.63 µM) | –
9 | CS[C@H]1O[C@H]([C@H](NC(=O)c2ccccn2)[C@H](C)Cl)[C@H](O)[C@H](O)[C@H]1O [U-45,863] | 62.5 (≈ 166 µM) | – | – | 62.5 (≈ 166 µM) | > 1000 | > 1000 | > 1000 | > 1000 | > 1000 | – | 2 (≈ 5.31 µM) | –
10 | CS[C@H]1O[C@H]([C@H](NC(=O)C2CCCCN2)[C@H](C)Cl)[C@H](O)[C@H](O)[C@H]1O (stereo partly drawn) [U-46,337] | – | – | – | – | > 1000 | > 1000 | > 1000 | > 1000 | > 1000 | – | – | MIC (Staphylococcus aureus; S. aureus UC 76, listed as 46,337): 1000 µg/mL (≈ 2610 µM); MIC (Staphylococcus aureus; S. aureus UC 570, listed as 46,337): 1000 µg/mL (≈ 2610 µM); MIC (Staphylococcus aureus; S. aureus UC 746, listed as 46,337): 1000 µg/mL (≈ 2610 µM); MIC (Diplococcus pneumoniae; listed as 46,337): 250 µg/mL (≈ 653 µM); MIC (Streptococcus faecalis; listed as 46,337): > 1000 µg/mL; MIC (S. hemolyticus; listed as 46,337): 250 µg/mL (≈ 653 µM)
11 | CS[C@H]1O[C@H]([C@H](NC(=O)C2CCCCN2CCO)[C@H](C)Cl)[C@H](O)[C@H](O)[C@H]1O (stereo partly drawn) [U-44,469] | 250 (≈ 586 µM) | 250 (≈ 586 µM) | > 1000 | 31.3 (≈ 73.3 µM) | > 1000 | > 1000 | > 1000 | > 1000 | > 1000 | 1000 (≈ 2340 µM) | 31.3 (≈ 73.3 µM) | –
12 | CCc1ccnc(C(=O)N[C@@H]([C@H]2O[C@H](SC)[C@H](O)[C@@H](O)[C@H]2O)[C@H](C)Cl)c1 [U-45,652] | 1000 (≈ 2470 µM) | > 1000 | 1000 (≈ 2470 µM) | 500 (≈ 1230 µM) | > 1000 | 500 (≈ 1230 µM) | > 1000 | > 1000 | > 1000 | > 1000 | 500 (≈ 1230 µM) | –
13 | CS[C@H]1O[C@H]([C@H](NC(=O)c2ccccn2)[C@@H](C)O)[C@H](O)[C@H](O)[C@H]1O [U-46,136] | > 1000 | > 1000 | > 1000 | > 1000 | > 1000 | > 1000 | > 1000 | > 1000 | > 1000 | > 1000 | 1000 (≈ 2790 µM) | –
14 | CS[C@H]1O[C@H]([C@H](NC(=O)c2cccnc2Cl)[C@H](C)Cl)[C@H](O)[C@H](O)[C@H]1O [U-45,657] | 125 (≈ 304 µM) | 250 (≈ 608 µM) | 250 (≈ 608 µM) | – | > 1000 | > 1000 | > 1000 | > 1000 | > 1000 | > 1000 | 7.8 (≈ 19 µM) | –
